From PubChem BioAssay (NCI) come the findings set out here.

Test systems include HOP-18 NSCLC; SNB-78 CNS; KM20L2 colon; DMS 273 small cell lung; RXF-631 renal; DMS 114 small cell lung; M19-MEL melanoma; XF 498 CNS; MDA-N.
What all share (test): NCI tumour cell line growth inhibition, 48 h

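Grown in 96-well plates, cells were treated for 48 hours with each compound at five concentrations. Insufficient inhibition: endpoint recorded as highest concentration tested. GI50 = concentration required for 50% inhibition of growth. TGI is the concentration that stops growth completely.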

Take `C1C[OH+]CC[OH+]CCNCC[OH+]CC[OH+]CCN1.N.[Cl-].[Pt+4]`: the GI50 in the assay on HOP-18 NSCLC is 19.9 µM; in the assay on SNB-78 CNS it was 4.15 µM; in the assay with KM20L2 colon, 30.3 µM; with DMS 273 small cell lung it was 2.87 µM. Moreover, the TGI in the assay on HOP-18 NSCLC is > 100 µM; with SNB-78 CNS it was 63.3 µM; with KM20L2 colon it was > 100 µM; in the assay on DMS 273 small cell lung it was 15.7 µM.

Turning to `CCCNC1=C(C(=O)OCC)C(=O)CO1`, the TGI in the assay on RXF-631 renal, in the assay on DMS 114 small cell lung, in the assay on M19-MEL melanoma, with SNB-78 CNS, with KM20L2 colon and in the assay with XF 498 CNS was > 100 µM in each case. Besides, the TGI in the assay on DMS 273 small cell lung is > 100 µM.

`CCCCCCCCCCCC(=O)OCC1OC(n2cc(F)c(=O)[nH]c2=O)C(NC(=O)OCc2ccccc2)C(OC(=O)CCCCCCCCCCC)C1O` (stereo not given): the TGI in the assay with RXF-631 renal, in the assay on HOP-18 NSCLC, with DMS 114 small cell lung, in the assay on M19-MEL melanoma, in the assay with SNB-78 CNS and in the assay on KM20L2 colon was > 100 µM throughout. Besides, the TGI in the assay with XF 498 CNS and in the assay on DMS 273 small cell lung was > 100 µM throughout.

Regarding `CCCCCCCCCCC(C(=O)O)C1(C(=O)O)CCC(=O)O1` (stereo not given), the TGI in the assay on MDA-N was > 100 µM.

On to `O=[N+]([O-])C1C2C=CC(C2)[C@H]1c1ccco1` (stereo not given in full), for which the TGI with DMS 114 small cell lung, with M19-MEL melanoma, with SNB-78 CNS, in the assay with KM20L2 colon, with XF 498 CNS and with DMS 273 small cell lung was > 100 µM each time.

For `O=C(CN1CCOCC1)Nc1nc(-c2ccc(Cl)cc2)cs1`, the TGI is > 100 µM in the assay with HOP-18 NSCLC; 65.8 µM with DMS 114 small cell lung; > 100 µM in the assay on M19-MEL melanoma; > 100 µM in the assay on SNB-78 CNS; 26.9 µM in the assay on XF 498 CNS; 41.8 µM in the assay with DMS 273 small cell lung.

With `C[C@@H]1C[C@H]2CC[C@H](O2)[C@H](C)C(=O)O[C@@H](C)C[C@@H]2CC[C@@H](O2)[C@@H](C)C(=O)O[C@H](C)C[C@H]2CC[C@H](O2)[C@H](C)C(=O)O[C@@H](C)C[C@@H]2CC[C@@H](O2)[C@@H](C)C(=O)O1`, the TGI in the assay with MDA-N is > 100 µM.

For the molecule `Cc1ccc(C(=O)c2nnc(C(=O)c3ccc(C)cc3)nn2)cc1`, the TGI was > 100 µM in the assay on HOP-18 NSCLC; 61.5 µM with M19-MEL melanoma; > 100 µM with SNB-78 CNS; > 100 µM in the assay with KM20L2 colon; > 100 µM in the assay on DMS 273 small cell lung.

As for `NNC(=O)/C(=C/c1ccc(Cl)cc1Cl)NC(=O)c1ccccc1`, the TGI in the assay on HOP-18 NSCLC, in the assay with DMS 114 small cell lung, with M19-MEL melanoma, in the assay with SNB-78 CNS, in the assay on XF 498 CNS and in the assay with DMS 273 small cell lung was > 100 µM each time.

Consider `CC(CCC(=O)O)[C@H]1CCC2[C@@H]3CC[C@@H]4CC(O)CC[C@]4(C)C3CC[C@@]21C` (stereo not given in full), for which, in the assay on MDA-N, the GI50 is 60.6 µM and the TGI was > 100 µM.

On to `CN(C)C(=O)OC(Cn1cncn1)c1ccc(Cl)cc1Cl` (stereo not given), for which the TGI in the assay with HOP-18 NSCLC, with DMS 114 small cell lung, in the assay with M19-MEL melanoma, in the assay with SNB-78 CNS, in the assay with KM20L2 colon and with DMS 273 small cell lung was > 100 µM throughout.

Take `CCOC(=O)c1c2c(n3ccccc13)C(=O)c1ccccc1C2=O`: the TGI with MDA-N is > 100 µM.

`O=C(/C=C/c1ccccc1)c1cc(Br)ccc1O`: in the assay on MDA-N, the TGI was determined as 33.3 µM.

In the case of `C#CCOCn1cnc2c(Cl)ncnc21`, the TGI in the assay on RXF-631 renal, in the assay with HOP-18 NSCLC, in the assay on DMS 114 small cell lung, in the assay with M19-MEL melanoma, with SNB-78 CNS and in the assay on XF 498 CNS was > 100 µM in each case. Moreover, the TGI in the assay on DMS 273 small cell lung was > 100 µM.

For the molecule `COc1ccc(OC)c(NC(=O)C2=C(C)NC(C)=C(C(=O)Nc3cc(OC)ccc3OC)C2c2ccccc2)c1`, the TGI in the assay with HOP-18 NSCLC, with DMS 114 small cell lung, in the assay with M19-MEL melanoma, in the assay with SNB-78 CNS, in the assay on KM20L2 colon and with DMS 273 small cell lung was > 100 µM in each case.

For `CC1C=C(OC(=O)c2ccccc2)C(=O)C(n2cc(F)c(=O)[nH]c2=O)O1` (stereo not given), the TGI in the assay on HOP-18 NSCLC, in the assay with DMS 114 small cell lung, in the assay with M19-MEL melanoma, in the assay with SNB-78 CNS, with KM20L2 colon and in the assay on XF 498 CNS was > 100 µM in each case. In addition, the TGI in the assay on DMS 273 small cell lung was > 100 µM.

As to `C/C(=N\NS(=O)(=O)c1ccccc1)c1ccc(Cl)c(Cl)c1`, the TGI in the assay on HOP-18 NSCLC, in the assay on DMS 114 small cell lung, with M19-MEL melanoma, in the assay on SNB-78 CNS, in the assay on KM20L2 colon and in the assay with XF 498 CNS was > 100 µM in each case. Further, the TGI in the assay with DMS 273 small cell lung is > 100 µM.

As for `Cc1ccc(NC(=O)C(=O)C(C#N)c2ccccc2C)cc1C` (stereo not given), the TGI with HOP-18 NSCLC was > 100 µM; in the assay with DMS 114 small cell lung it was > 59.2 µM; with SNB-78 CNS, > 100 µM; with KM20L2 colon, > 100 µM; with XF 498 CNS it was > 100 µM; in the assay with DMS 273 small cell lung, > 100 µM.

Turning to `C=CCC[CH2][Sn]([c]1ccccc1)([c]1ccccc1)[c]1ccccc1`, the GI50 was 1.85 µM in the assay on RXF-631 renal; 2.59 µM with HOP-18 NSCLC; 2.17 µM with M19-MEL melanoma; 1.73 µM in the assay with SNB-78 CNS; 1.83 µM with KM20L2 colon; 2.08 µM in the assay with XF 498 CNS. The GI50 with DMS 273 small cell lung is 1.58 µM. Further, the TGI in the assay with RXF-631 renal amounted to 3.53 µM; in the assay with HOP-18 NSCLC, 4.51 µM; with M19-MEL melanoma, 4.49 µM; in the assay with SNB-78 CNS it was 4.83 µM; in the assay with KM20L2 colon it was 3.36 µM; with XF 498 CNS it was 3.55 µM. The molecule further returned a TGI in the assay on DMS 273 small cell lung of 3.03 µM.
